From PubChem BioAssay AID1996
Values after ≈ are worked out from the molar mass of the structure shown.

Conditions: buffer; pH 7.4; 200.0 µM

| Structure (SMILES) | solubility kinetic [µg/mL] |
| --- | --- |
| CN(CC(=O)Nc1ccc(Cl)c(C(F)(F)F)c1)C(=O)c1cnccn1 | 13.7 (≈ 36.8 µM) |
| COc1cc(CN2CC=C(c3ccc(F)cc3)CC2)cc(OC)c1 | 10.4 (≈ 31.8 µM) |
| O=C(COC(=O)c1ccco1)NCc1ccc(Cl)cc1Cl | 14.1 (≈ 43 µM) |
| O=C(O)Cn1c(=O)c2c3c(sc2n(Cc2ccc(F)cc2)c1=O)CCCC3 | > 58.3 |
| O=C(NCCO)c1cc([N+](=O)[O-])cc2c1C=Cc1ccccc1O2 | 35.3 (≈ 108 µM) |
| Cc1ccnc(SC2CC(=O)N(c3ccc(C(C)C)cc3)C2=O)n1 (stereo unspecified) | > 51.2 |
| O=C(NC1CCCCC1)c1ccccc1C(F)(F)F | 38.9 (≈ 143 µM) |
| COc1ccc(OCC(=O)OCC(=O)NC2CCCC2)cc1 | > 46.1 |
| CN(C)c1ccc(/C=C/C(=O)c2ccc(O)cc2)cc1[N+](=O)[O-] | 1.2 (≈ 3.84 µM) |
| COc1ccc2ccccc2c1CNCCc1ccccc1.Cl | 42 |
| Cc1cc(=O)[nH]c(-c2ccc(C(F)(F)F)cc2)n1 | > 38.1 |
| COC(=O)[C@H](Cc1ccccc1)NC(=O)N1CCCCCC1 | > 45.7 |
| Nc1ccc(-c2ccc(N)c([N+](=O)[O-])c2)cc1[N+](=O)[O-] | 0.2 (≈ 0.729 µM) |
| O=[N+]([O-])c1ccc(N2CCN(CC3CCCCC3)CC2)cc1 | 2.1 (≈ 6.92 µM) |
| O=C(Nc1ccc(Br)cc1)c1ccc2c(c1)OCO2 | 1.3 (≈ 4.06 µM) |
| Cc1ccc(NC(=O)Cn2c(=O)oc3ccccc32)c(C)c1 | 13.9 (≈ 46.9 µM) |
| Cc1ccc(NC(=O)NCc2ccc3[nH]c(C)cc3c2)cc1 | 2.9 (≈ 9.89 µM) |
| COc1ccc2nc(C)cc(N3CCC(C(N)=O)CC3)c2c1 | 42.3 (≈ 141 µM) |
| CC1(C)Cc2nc3sc4c(NCCO)ncnc4c3cc2CS1 | > 52 |
| CCc1cc(C(=O)c2ccc(OC)cc2)c(N)s1 | 20.9 (≈ 80 µM) |
| O=S(=O)(Nc1ccc(Cl)cn1)c1ccc(F)cc1 | > 43 |
| COCCN(C(=O)COC(=O)Cc1c(C)nc2ccccc2c1C)c1c(N)n(CC(C)C)c(=O)[nH]c1=O | 64.2 (≈ 125 µM) |
| CN(C(=O)COC(=O)Cc1ccc(Cl)cc1)C1CCCCC1 | > 48.6 |
| Cc1csc(SCC(=O)NC(C)C2CC3CCC2C3)n1 (stereo unspecified) | > 46.6 |
| Cn1cccc1C(=O)OCC(=O)NCc1ccc2c(c1)OCO2 | > 47.4 |
| O=C(COC(=O)C1CCCC1)Nc1ncc(Cl)cc1Cl | > 47.6 |
| CCOC(=O)C(=CNc1ccc(C(F)(F)F)cc1)C(=O)OCC | 2.7 (≈ 8.15 µM) |

| Structure (SMILES) | solubility kinetic [µg/mL] |
| --- | --- |
| CC(=O)c1ccc(N2CCN(C(=O)c3ccc4[nH]c(C)c(C)c4c3)CC2)cc1 | 1.6 (≈ 4.26 µM) |
| O=C(COC(=O)Cc1cccc(F)c1)NC(=O)NC1CCCCC1 | > 50.5 |
| Cc1ccc(C(=O)NCC(=O)Nc2ccc(S(=O)(=O)Nc3cc(C)nc(C)n3)cc2)cc1 | > 68 |
| COc1cc2[nH]c(=S)n(C3CC3)c(=O)c2cc1OC | 7.6 (≈ 27.3 µM) |
| CC(Sc1nnc(-c2ccco2)n1C)C(=O)NC1CCCC1 (stereo unspecified) | > 48.1 |
| O=C(c1cc(F)c(F)cc1Cl)N1CCCc2ccccc21 | 30.3 (≈ 98.5 µM) |
| Cn1ncc(Br)c1C(=O)N1CCCC1 | > 38.7 |
| O=C(NCc1ccccn1)C(=O)NCC(c1ccco1)N1CCOCC1 (stereo unspecified) | > 53.8 |
| CC1CCN(C(=O)C(C)Cl)CC1 (stereo unspecified) | 11.1 (≈ 58.5 µM) |
| CCCCC(=O)N(CCOC)c1nnc(-c2cccnc2)s1 | > 48.1 |
| COc1ccc(C2=NCCNC(C(F)(F)F)=C2)cc1 | > 40.5 |
| COc1cccc(NC(=O)c2c([N+](=O)[O-])cnn2C)c1 | > 41.4 |
| CC(=O)NC(CC(=O)N(C)C1CCCCC1)c1ccccc1 (stereo unspecified) | > 45.4 |
| COc1ccc(C2C3=C(CCCC3=O)NC3=C2C(=O)c2ccccc23)cc1 (stereo unspecified) | < 0.8 |
| CCOc1ccc(S(=O)(=O)NC2CCCCC2C)cc1 (stereo unspecified) | 37.5 (≈ 126 µM) |
| Cc1sc2nc(-c3cccs3)oc(=O)c2c1C | < 0.6 |
| O=C(CSc1cc(Cl)ccc1Cl)NCCCn1ccnc1 | 45.3 (≈ 132 µM) |
| O=C1CSC(c2ccc([N+](=O)[O-])cc2)N1c1ccccc1F (stereo unspecified) | > 47.7 |
| COc1ccc2oc(C(=O)OCC(=O)N3CC(C)OC(C)C3)c(C)c2c1 (stereo unspecified) | 51.6 (≈ 143 µM) |
| Cc1cc(C)cc(C(=O)OCC(=O)NC2CCCC2)c1 | 21.7 (≈ 78.8 µM) |
| Cc1ccc2c(c1)C1CN(C)CCC1N2C(=S)Nc1ccc(OC(F)F)cc1 (stereo unspecified) | 44.8 (≈ 111 µM) |
| CCOC(=O)CN1C(=O)CCSc2ccc(Cl)cc21 | > 45 |
| COC(=O)c1ccc(COC(=O)CNC(=O)c2cccs2)cc1 | > 50 |
| CCOc1ccc(CN(C)C(=O)c2ccc(=O)[nH]c2)cc1 | 29.3 (≈ 102 µM) |
| Cl.NCCc1nnc(SCc2ccccc2Cl)o1 | > 45.9 |
| O=C1NC(c2ccc(Cl)cc2Cl)Oc2ccccc21 (stereo unspecified) | 0.9 (≈ 3.06 µM) |

More lines, now with the values ahead:

| solubility kinetic [µg/mL] | Structure (SMILES) |
| --- | --- |
| > 42.7 | Cc1cc(NCc2ccccc2)c2ccccc2n1.Cl |
| 6.8 (≈ 25.4 µM) | Cc1ccc(C(=O)/C=C/c2ccccc2[N+](=O)[O-])cc1 |
| 2.2 (≈ 7.82 µM) | COc1cccc(CC(=O)Nc2nc3ccccc3[nH]2)c1 |
| 6.2 (≈ 20.5 µM) | O=C(NC(=S)Nc1ccccn1)c1cccc([N+](=O)[O-])c1 |
| 35.1 (≈ 135 µM) | O=C(CCc1ccccc1)Nc1cccnc1Cl |
| 3.7 (≈ 10.1 µM) | COc1ccc(/C=C/C(=O)OCC(=O)NC(C)CCc2ccccc2)cc1 (stereo unspecified) |
| > 44.6 | O=C1OCc2ccc(NC(=O)c3ccccc3C(=O)O)cc21 |
| 31.9 (≈ 107 µM) | COc1ccc(-c2[nH]c3ccccc3c2SCCN)cc1 |
| 23.2 (≈ 109 µM) | CO/N=C(\c1ccccc1)c1cccnc1 |
| 53.6 (≈ 138 µM) | CC(=O)c1ccc(S(=O)(=O)N2CCN(CCOc3ccccc3)CC2)cc1 |
| > 35.4 | COC(=O)[C@H](C)NC(=O)NCc1ccccc1 |
| 23 (≈ 71.6 µM) | CN(C)c1cccc(C(=O)NCCCn2ccc3ccccc32)c1 |
| 3.4 (≈ 10.3 µM) | COc1ccc2c(c1)C(=C(C#N)C#N)C(=O)N2CCc1ccccc1 |
| 0.3 (≈ 1.07 µM) | Cc1cc2ccccn2c1C(=O)c1cccc([N+](=O)[O-])c1 |
| 44.8 (≈ 128 µM) | O=C(c1ccccc1)N1CCCN(c2nccc(C(F)(F)F)n2)CC1 |
| 32 (≈ 114 µM) | CC(C)n1cnc2cc(NCc3ccccc3O)ccc21 |
| 4.5 (≈ 11.7 µM) | O=C(Nc1cccc(Cl)c1)Nc1sccc1-c1nc2ccccc2s1 |

| solubility kinetic [µg/mL] | Structure (SMILES) |
| --- | --- |
| 4.9 (≈ 17.9 µM) | COc1ccccc1NC1=Nc2cccc3cccc1c23 |
| 6.7 (≈ 23.3 µM) | Cc1cccc(S(=O)(=O)N2CCCc3ccccc32)c1 |
| 6.1 (≈ 19 µM) | O=C(Nc1ncc2c(n1)-c1ccccc1OC2)c1ccc(F)cc1 |
| 16.9 (≈ 74.3 µM) | COc1ccc(NC(C)c2ccccc2)cc1 (stereo unspecified) |
| > 33.1 | Cn1ccnc1C(=O)c1ccccc1Cl |
| 45.7 (≈ 145 µM) | CCC(=O)Nc1c(-c2ccc3ccccc3c2)nc2ccccn12 |
| > 40.9 | COc1cccc(NC(=S)NCc2ccccc2)c1 |
| 0.6 (≈ 2.27 µM) | N=c1oc2ccccc2cc1C(=O)Nc1ccccc1 |
| > 42.3 | COc1cc(N)ccc1NC(=O)c1cc2ccccc2o1 |
| > 31.1 | O=C(Oc1ccccc1)N1CCOCC1 |
| > 50.5 | CC(CC(=O)N1CCN(C(=O)c2ccccc2)CC1)c1ccccc1 (stereo unspecified) |
| > 40.7 | O=C(COC(=O)c1ccc(O)cc1)Nc1ccccc1 |
| 3.8 (≈ 11.8 µM) | CC(=O)Nc1ccc(N=Cc2c(O)c3ccccc3oc2=O)cc1 |
| > 41.9 | CCN(CC)C(=O)c1cccc2nc3ccccc3nc12 |
| 41.3 (≈ 132 µM) | CC1=C(C(=O)Nc2ccccc2)C(c2cccs2)NC(=O)N1 (stereo unspecified) |
| > 54.8 | Cc1cccc(N2CCN(C(=O)CNC(=O)Cc3ccccc3)CC2)c1C |
